Source: patent publication US11524966B1 (Valo Early Discovery, Inc., priority 2017, dated 2022)

Target: T1, USP25 (USP25-His6, Boston Biochem E-546) (Homo sapiens, UniProt Q9UHP3)
T1 construct: His6; purchased Boston Biochem E-546
T1 sequence (Q9UHP3 1-1055): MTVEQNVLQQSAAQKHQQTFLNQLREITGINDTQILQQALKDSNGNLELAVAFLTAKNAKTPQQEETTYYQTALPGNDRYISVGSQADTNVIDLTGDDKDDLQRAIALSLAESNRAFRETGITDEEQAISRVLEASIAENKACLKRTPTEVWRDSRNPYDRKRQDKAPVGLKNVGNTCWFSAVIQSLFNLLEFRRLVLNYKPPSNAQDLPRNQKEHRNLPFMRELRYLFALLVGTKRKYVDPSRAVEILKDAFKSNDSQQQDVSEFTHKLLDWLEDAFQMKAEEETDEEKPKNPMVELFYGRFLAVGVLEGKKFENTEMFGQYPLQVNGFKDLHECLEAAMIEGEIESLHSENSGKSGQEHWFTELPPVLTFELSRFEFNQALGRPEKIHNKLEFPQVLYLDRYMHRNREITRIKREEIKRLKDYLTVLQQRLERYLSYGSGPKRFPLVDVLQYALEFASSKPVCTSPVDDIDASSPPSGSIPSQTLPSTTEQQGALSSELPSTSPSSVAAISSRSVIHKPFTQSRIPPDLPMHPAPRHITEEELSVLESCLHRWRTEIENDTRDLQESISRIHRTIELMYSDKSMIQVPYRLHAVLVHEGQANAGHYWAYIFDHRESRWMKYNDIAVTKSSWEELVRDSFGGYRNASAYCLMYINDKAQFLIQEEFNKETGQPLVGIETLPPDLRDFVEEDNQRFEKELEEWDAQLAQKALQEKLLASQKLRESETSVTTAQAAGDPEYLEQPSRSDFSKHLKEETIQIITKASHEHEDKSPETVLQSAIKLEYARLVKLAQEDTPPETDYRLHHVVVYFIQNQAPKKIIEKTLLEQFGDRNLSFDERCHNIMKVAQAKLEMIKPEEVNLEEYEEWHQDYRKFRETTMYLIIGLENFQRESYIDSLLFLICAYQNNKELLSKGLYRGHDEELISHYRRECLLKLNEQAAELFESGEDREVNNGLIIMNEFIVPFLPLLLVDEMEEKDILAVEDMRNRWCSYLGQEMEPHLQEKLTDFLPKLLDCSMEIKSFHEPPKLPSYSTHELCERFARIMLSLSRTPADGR
Experiment: Ubiquitin-Rhodamine 110 Assay for USP25 Activity, Example A-2
Type: biochemical
Conditions: Ubiquitin-Rhodamine 110 assay, Example A-2; read-out: USP25 A-2 IC50 range
Summary of the method: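 Steps: compound dilutions (top 25 μM, 3-fold, 10 points) were preincubated 30 min with 75 pM USP25-His6; 25 nM Ub-Rh110 substrate was added under initial-velocity conditions; after 45 min at room temperature, 10 mM citric acid stopped the reaction before fluorescence reading.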

Cc1ccc2c(N)c(C(=O)N[C@H]3CCc4cc(N5CCNCC5)c(F)c(F)c4C3)sc2n1 [Example 417, 3-amino-N-[(2S)-7,8-difluoro-6-(piperazin-1-yl)-1,2,3,4-tetrahydronaphthalen-2-yl]-6-methylthieno[2,3-b]pyridine-2-carboxamide]
IC50: > 2000 nM

Cc1ccc2c(N)c(C(=O)N[C@@H]3CCc4cc(N5CCNCC5)c(F)c(F)c4C3)sc2n1 [Example 418, 3-amino-N-[(2R)-7,8-difluoro-6-(piperazin-1-yl)-1,2,3,4-tetrahydronaphthalen-2-yl]-6-methylthieno[2,3-b]pyridine-2-carboxamide]
IC50: 200 to 2000 nM

Cc1cnc2c(N)c(C(=O)N[C@H]3CCc4cc(N5CC6CNCC(C5)O6)ccc4C3)sc2n1 [Example 448, N-((2S)-6-(9-oxa-3,7-diazabicyclo[3.3.1]nonan-3-yl)-1,2,3,4-tetrahydronaphthalen-2-yl)-7-amino-3-methylthieno[2,3-b]pyrazine-6-carboxamide]
IC50: 200 to 2000 nM

Cc1cnc2c(N)c(C(=O)N[C@@H]3CCc4cc(N5CC6CNCC(C5)O6)ccc4C3)sc2n1 [Example 450, N-((2R)-6-(9-oxa-3,7-diazabicyclo[3.3.1]nonan-3-yl)-1,2,3,4-tetrahydronaphthalen-2-yl)-7-amino-3-methylthieno[2,3-b]pyrazine-6-carboxamide]
IC50: > 2000 nM

Cc1ccc2c(N)c(C(=O)N[C@@H]3CCc4cc(N5CC6CNCC(C5)O6)ccc4C3)sc2n1 [Example 451, N-((2R)-6-(9-oxa-3,7-diazabicyclo[3.3.1]nonan-3-yl)-1,2,3,4-tetrahydronaphthalen-2-yl)-3-amino-6-methylthieno[2,3-b]pyridine-2-carboxamide]
IC50: 200 to 2000 nM

Cc1cnc2c(N)c(C(=O)N[C@@H]3CCc4cc(N5CCCNCC5)ccc4C3)sc2n1 [Example 452, (R)-N-(6-(1,4-diazepan-1-yl)-1,2,3,4-tetrahydronaphthalen-2-yl)-7-amino-3-methylthieno[2,3-b]pyrazine-6-carboxamide]
IC50: > 2000 nM

Cc1cnc2c(N)c(C(=O)N[C@H]3CCc4cc(N5CCCNCC5)ccc4C3)sc2n1 [Example 455, (S)-N-(6-(1,4-diazepan-1-yl)-1,2,3,4-tetrahydronaphthalen-2-yl)-7-amino-3-methylthieno[2,3-b]pyrazine-6-carboxamide]
IC50: 200 to 2000 nM

Cc1cnc2c(N)c(C(=O)N[C@H]3CCc4cc(N5CC6COCC(C5)N6)ccc4C3)sc2n1 [Example 456, N-((2S)-6-(3-oxa-7,9-diazabicyclo[3.3.1]nonan-7-yl)-1,2,3,4-tetrahydronaphthalen-2-yl)-7-amino-3-methylthieno[2,3-b]pyrazine-6-carboxamide]
IC50: > 2000 nM

Cc1cccc2c(C(=O)N[C@H]3COc4cc(N5CCNCC5)ccc4C3)cnn12 [Example 458, (R)-7-methyl-N-(7-(piperazin-1-yl)chroman-3-yl)pyrazolo[1,5-a]pyridine-3-carboxamide]
IC50: 200 to 2000 nM

CC(=O)N1CCCc2cc(C(=O)N[C@H]3COc4cc(N5CCNCC5)ccc4C3)ccc21 [Example 459, (R)-1-acetyl-N-(7-(piperazin-1-yl)chroman-3-yl)-1,2,3,4-tetrahydroquinoline-6-carboxamide]
IC50: > 2000 nM

O=C(N[C@H]1COc2cc(N3CCNCC3)ccc2C1)c1cnn2ccccc12 [Example 460, (R)-N-(7-(piperazin-1-yl)chroman-3-yl)pyrazolo[1,5-a]pyridine-3-carboxamide]
IC50: > 2000 nM

COc1ccn2ncc(C(=O)N[C@H]3COc4cc(N5CCNCC5)ccc4C3)c2c1 [Example 461, (R)-5-methoxy-N-(7-(piperazin-1-yl)chroman-3-yl)pyrazolo[1,5-a]pyridine-3-carboxamide]
IC50: > 2000 nM

O=C(N[C@H]1COc2cc(N3CCNCC3)ccc2C1)c1cnn2cc(Cl)ccc12 [Example 462, (R)-6-chloro-N-(7-(piperazin-1-yl)chroman-3-yl)pyrazolo[1,5-a]pyridine-3-carboxamide]
IC50: > 2000 nM

Cc1cc(C)n2ncc(C(=O)N[C@H]3COc4cc(N5CCNCC5)ccc4C3)c2n1 [Example 463, (R)-5,7-dimethyl-N-(7-(piperazin-1-yl)chroman-3-yl)pyrazolo[1,5-a]pyrimidine-3-carboxamide]
IC50: > 2000 nM

O=C(N[C@H]1COc2cc(N3CCNCC3)ccc2C1)c1cn2nc(Cl)ccc2n1 [Example 464, (R)-6-chloro-N-(7-(piperazin-1-yl)chroman-3-yl)imidazo[1,2-b]pyridazine-2-carboxamide]
IC50: > 2000 nM

Cc1ccn2ncc(C(=O)N[C@H]3COc4cc(N5CCNCC5)ccc4C3)c2c1 [Example 465, (R)-5-methyl-N-(7-(piperazin-1-yl)chroman-3-yl)pyrazolo[1,5-a]pyridine-3-carboxamide]
IC50: > 2000 nM

O=C(N[C@H]1COc2cc(N3CCNCC3)ccc2C1)c1cnn2cccnc12 [Example 466, (R)-N-(7-(piperazin-1-yl)chroman-3-yl)pyrazolo[1,5-a]pyrimidine-3-carboxamide]
IC50: > 2000 nM

O=C(N[C@H]1COc2cc(N3CCNCC3)ccc2C1)c1ccc(NCc2cccnc2)nc1 [Example 468, (R)-N-(7-(piperazin-1-yl)chroman-3-yl)-6-((pyridin-3-ylmethyl)amino)nicotinamide]
IC50: > 2000 nM

O=C(N[C@H]1COc2cc(N3CCNCC3)ccc2C1)c1ccc(NCc2cccc(C(F)(F)F)c2)nc1 [Example 469, (R)-N-(7-(piperazin-1-yl)chroman-3-yl)-6-((3-(trifluoromethyl)benzyl)amino)nicotinamide]
IC50: 50 to 200 nM

O=C(N[C@H]1COc2cc(N3CCNCC3)ccc2C1)c1ccc(NCc2ccccn2)nc1 [Example 470, (R)-N-(7-(piperazin-1-yl)chroman-3-yl)-6-((pyridin-2-ylmethyl)amino)nicotinamide]
IC50: > 2000 nM

O=C(N[C@H]1COc2cc(N3CCNCC3)ccc2C1)c1ccc(NCc2ccc3c(c2)OCCO3)nc1 [Example 471, (R)-6-(((2,3-dihydrobenzo[b][1,4]dioxin-6-yl)methyl)amino)-N-(7-(piperazin-1-yl)chroman-3-yl)nicotinamide]
IC50: 200 to 2000 nM

O=C(N[C@H]1COc2cc(N3CCNCC3)ccc2C1)c1ccc(NCc2ccc3c(c2)CCO3)nc1 [Example 472, (R)-6-(((2,3-dihydrobenzofuran-5-yl)methyl)amino)-N-(7-(piperazin-1-yl)chroman-3-yl)nicotinamide]
IC50: 200 to 2000 nM

CC(=O)Nc1cccc(CNc2ccc(C(=O)N[C@H]3COc4cc(N5CCNCC5)ccc4C3)cn2)c1 [Example 473, (R)-6-((3-acetamidobenzyl)amino)-N-(7-(piperazin-1-yl)chroman-3-yl)nicotinamide]
IC50: > 2000 nM

CCc1cccc2c(C(=O)N[C@H]3COc4cc(N5CCNCC5)ccc4C3)cnn12 [Example 474, 7-ethyl-N-[(3R)-7-(piperazin-1-yl)-3,4-dihydro-2H-1-benzopyran-3-yl]pyrazolo[1,5-a]pyridine-3-carboxamide]
IC50: 200 to 2000 nM

O=C(N[C@H]1COc2cc(N3CCNCC3)ccc2C1)c1cnn2c(CO)cccc12 [Example 475, 7-(hydroxymethyl)-N-[(3R)-7-(piperazin-1-yl)-3,4-dihydro-2H-1-benzopyran-3-yl]pyrazolo[1,5-a]pyridine-3-carboxamide]
IC50: > 2000 nM
